Measurements: US6015925A, “Antifungal agents” (Pola Chemical Industries, Inc., priority 1998, dated 2000)
Values after ≈ are worked out from the molar mass of the structure shown.

Each compound was assayed on T. mentagrophytes (TIMM1189) (assay: Antifungal Activity Test (Measurement of Minimum Inhibitory Concentration)). Settings: Trichophyton mentagrophytes, 168 h, Sabouraud dextrose broth, 27° C., 1 week, visual determination, read-out: MIC (minimum concentration at which growth was completely inhibited).
Type: cell-based
Protocol: Antifungal activities of compounds according to the present invention against Trichophyton sp. were determined. Described specifically, T. mentagrophytes (TIMM1189) was cultured at 27° C. for 2 weeks on Sabouraud dextrose agar slants in advance, whereby it was allowed to form sufficient conidia. The conidia were washed in a sterilized physiological saline, which contained Tween 80 at a concentration of 0.05 wt./vol. %, by rubbing the conidia with a platinum loop, whereby the conidia were suspended. The suspension was filtered through a double-layer gauze so that only the conidia were collected in a form suspended in the physiological saline. The suspension was diluted to adjust the concentration of conidia to 1×10^5 conidia/ml, whereby a test fungus solution was obtained. Meanwhile, 4 mg of one of the test compounds were taken, to which 1 ml of dimethyl sulfoxide was added to prepare a stock. The stock was subjected to doubling dilution with ethanol to prepare diluted drug solutions. To each well of a 96-well microplate for tissue culture, 175 μl of Sabouraud dextrose broth, 5 μl of the corresponding drug solution and 20 μl of the test fungus solution were added. Subsequent to thorough mixing, the fungus strain was cultured at 27° C. for 1 week.

Compound	MIC [µg/mL]
CN(Cc1ccc(-c2ccccc2)cc1)Cc1ccc(C(C)(C)C)cc1 [Compound 3, 4-tert-butyl-N-methyl-N-(4-phenylbenzyl)benzylamine]	12.5 (≈ 36.4 µM)
CN(Cc1ccc(C(C)(C)C)cc1)Cc1ccccc1-c1ccccc1 [Compound 1, 4-tert-butyl-N-methyl-N-(2-phenylbenzyl)benzylamine]	12.5 (≈ 36.4 µM)
CN(C/C=C/C#CC(C)(C)C)Cc1ccccc1-c1ccccc1 [Compound 5, trans-N-(6,6-dimethyl-2-hepten-4-yn-1-yl)-N-methyl-2-phenylbenzylamine]	12.5 (≈ 39.4 µM)
CN(Cc1ccc(C(C)(C)C)cc1)C(c1ccccc1)c1ccccc1 [Compound 4, 4-tert-butyl-N-diphenylmethyl-N-methylbenzylamine]	100 (≈ 291 µM)
CN(Cc1ccc(C(C)(C)C)cc1)Cc1cccc(-c2ccccc2)c1 [Compound 2, 4-tert-butyl-N-methyl-N-(3-phenylbenzyl)benzylamine]	25 (≈ 72.8 µM)
CN(C/C=C\C#CC(C)(C)C)Cc1ccccc1-c1ccccc1 [Compound 6, cis-N-(6,6-dimethyl-2-hepten-4-yn-1-yl)-N-methyl-2-phenylbenzylamine]	100 (≈ 315 µM)
CN(C/C=C/C#CC(C)(C)C)Cc1cccc(-c2ccccc2)c1 [Compound 7, trans-N-(6,6-dimethyl-2-hepten-4-yn-1-yl)-N-methyl-3-phenylbenzylamine]	12.5 (≈ 39.4 µM)

The remaining lines, values ahead:

MIC [µg/mL]	Compound
100 (≈ 315 µM)	CN(CC=CC#CC(C)(C)C)C(c1ccccc1)c1ccccc1 [Compound 11, N-(6,6-dimethyl-2-hepten-4-yn-1-yl)-N-methyl(diphenylmethyl)amine]
12.5 (≈ 39.4 µM)	CN(C/C=C\C#CC(C)(C)C)Cc1cccc(-c2ccccc2)c1 [Compound 8, cis-N-(6,6-dimethyl-2-hepten-4-yn-1-yl)-N-methyl-3-phenylbenzylamine]
12.5 (≈ 39.4 µM)	CN(C/C=C/C#CC(C)(C)C)Cc1ccc(-c2ccccc2)cc1 [Compound 9, trans-N-(6,6-dimethyl-2-hepten-4-yn-1-yl)-N-methyl-4-phenylbenzylamine]
